In patent publication US9681664B2, “Macrocyclic picolinamides as fungicides” (Dow Agrosciences LLC, priority 2012, dated 2017):
Where two headings read alike, the source gives them in different places.

Tests used:
Type in all cases: in vivo
[1] = system: Blumeria graminis f. sp. hordei; Synonym: Erysiphe graminis f. sp. hordei; experiment: Barley powdery mildew (ERYSGH) disease control; details: 24 h, 1 Day Protectant, high volume, read-out: Disease Control ERYSGH 1 DP
Procedure: (§1) Technical grades of materials were dissolved in acetone, which were then mixed with nine volumes of water containing 110 ppm Triton X-100. The fungicide solutions were applied onto wheat seedlings using an automated booth sprayer to run-off. All sprayed plants were allowed to air dry prior to further handling. All fungicides were evaluated using the aforementioned method for their activity vs. all target diseases. Wheat leaf blotch and brown rust activity were also evaluated using track spray applications, in which case the fungicides were formulated as EC formulations, containing 0.1% Trycol 5941 in the spray solutions. Barley seedlings (variety Harrington) were propagated in soil-less Metro mix, with each pot having 8 to 12 plants, and used in the test when first leaf was fully emerged. Test plants were inoculated by dusting with infected stock plants 24 hr after fungicide treatments. After inoculation the plants were kept in a greenhouse set at 20° C. for disease to develop. Fungicide formulation, application and disease assessment on the sprayed leaves followed the procedures as described in the Example A.

Rhyncosporium secalis = experiment: Barley scald (RHYNSE) disease control; details: 24 h, High volume application, 1 Day Protectant, read-out: RHYNSE 1 DP disease control
Procedure: as §1, with “inoculated by an aqueous spore suspension of Rhyncosporium secalis 24 hr” for “inoculated by dusting with infected stock plants 24 hr”, “kept in a dew room at 20° C. with 100% relative humidity for 48 hr. The plants were then transferred to a greenhouse” for “kept in a greenhouse”

Phakopsora pachyrhizi = experiment: Asian soybean rust (PHAKPA) disease control; details: topical, high volume
Outline: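 Compounds in acetone diluted with nine volumes water containing 0.011% Tween 20, sprayed to run-off on two-week-old Williams 82 soybean seedlings, inoculated 3 days before or 1 day after treatment. Plants held 24 h in dark dew room at 22 °C, 100% RH, then at 23 °C; disease severity scored on sprayed leaves.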

Alternaria solani = experiment: Tomato early blight (ALTESO) disease control; details: 24 h, 1 Day Protectant, high volume, read-out: Disease Control ALTESO 1 DP
Procedure: Technical grades of materials were dissolved in acetone, which were then mixed with nine volumes of water containing 110 ppm Triton X-100. The fungicide solutions were applied onto wheat seedlings using an automated booth sprayer to run-off. All sprayed plants were allowed to air dry prior to further handling. All fungicides were evaluated using the aforementioned method for their activity vs. all target diseases. Wheat leaf blotch and brown rust activity were also evaluated using track spray applications, in which case the fungicides were formulated as EC formulations, containing 0.1% Trycol 5941 in the spray solutions. Tomato plants (variety Outdoor girl) were propagated in soil-less Metro mix, with each pot having one plant, and used when 12 to 14 days old. Test plants were inoculated with an aqueous spore suspension of Alternaria solani 24 hr after fungicide treatments. After inoculation the plants were kept in 100% relative humidity (one day in a dark dew chamber followed by two to three days in a lighted dew chamber at 20° C.) to permit spores to germinate and infect the leaf. The plants were then transferred to a growth room at 22° C. for disease to develop. Fungicide formulation, application and disease assessment on the sprayed leaves followed the procedures as described in the Example A.

[2] = system: Mycosphaerella graminicola; Anamorph: Septoria tritici; experiment: Leaf blotch of wheat (SEPTTR) disease control on wheat seedlings; details: Zymoseptoria tritici, Wheat Leaf Blotch; for pest or weed control at 100 ppm: high volume application; for pest or weed control at 121.5 g/ha: low volume application, 121.5 g/H
Outline: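 Wheat seedlings (Yuma, first leaf emerged) sprayed to run-off with compound in acetone/water with 110 ppm Triton X-100, or track-sprayed as EC with 0.1% Trycol 5941. Septoria tritici spores inoculated before or after treatment. Dew chambers, then 20 °C greenhouse. Percent disease control derived from severity (0–100%) relative to untreated plants.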

[3] = system: Puccinia triticina; Synonym: Puccinia recondite f. sp. tritici; experiment: Wheat brown rust (PUCCRT) disease control on wheat seedlings; details: Puccinia triticina, Wheat Brown Rust; for pest or weed control at 100 ppm: high volume application; for pest or weed control at 121.5 g/ha: low volume application, 121.5 g/H
Outline: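 Acetone solutions diluted in nine volumes of water with 110 ppm Triton X-100 sprayed to run-off on first-leaf Yuma wheat seedlings (track spray: EC with 0.1% Trycol 5941). Puccinia triticina spores inoculated before or after treatment; overnight dark dew at 22° C., 100% RH, then greenhouse at 24° C. for disease development.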

[4] = 24 h, 1 Day Protectant, read-out: Disease Control PHAKPA 1DP
[5] = 72 h, 3 Day Curative, read-out: Disease Control PHAKPA 3DC
[6] = 24 h, 1 Day Protectant, read-out: Disease Control SEPTTR 1 DP 100 ppm
[7] = 24 h, 1 Day Protectant, read-out: Disease Control SEPTTR 1 DP 121.5 g/H
[8] = 72 h, 3 Day Curative, read-out: Disease Control SEPTTR 3 DC 100 ppm
[9] = 72 h, 3 Day Curative, read-out: Disease Control SEPTTR 3 DC 121.5 g/H
[10] = 24 h, 1 Day Protectant, read-out: Disease Control PUCCRT 1 DP 100 ppm
[11] = 24 h, 1 Day Protectant, read-out: Disease Control PUCCRT 1 DP 121.5 g/H
[12] = 72 h, 3 Day Curative, read-out: Disease Control PUCCRT 3 DC 100 ppm
[13] = 72 h, 3 Day Curative, read-out: Disease Control PUCCRT 3 DC 121.5 g/H

| Structure (SMILES) | pest or weed control at 100 ppm [1] [%] | pest or weed control at 100 ppm (Rhyncosporium secalis) [%] | pest or weed control at 25 ppm (Phakopsora pachyrhizi; [4]) [%] | pest or weed control at 25 ppm (Phakopsora pachyrhizi; [5]) [%] | pest or weed control at 100 ppm (Alternaria solani) [%] | pest or weed control at 100 ppm [2, 6] [%] | pest or weed control at 121.5 g/ha [2, 7] [%] | pest or weed control at 100 ppm [2, 8] [%] | pest or weed control at 121.5 g/ha [2, 9] [%] | pest or weed control at 100 ppm [3, 10] [%] | pest or weed control at 121.5 g/ha [3, 11] [%] | pest or weed control at 100 ppm [3, 12] [%] | pest or weed control at 121.5 g/ha [3, 13] [%] |
| --- | --- | --- | --- | --- | --- | --- | --- | --- | --- | --- | --- | --- | --- |
| CCOCC(=O)OCOc1c(OC)ccnc1C(=O)N[C@H]1CCC[C@H](Oc2ccccc2)[C@@H](OC(=O)C2CCCC2)[C@H](C)OC1=O [F237] | 0 to 80 | < 0 | 80 to 100 | < 0 | 0 to 80 | 0 to 80 | < 0 | 0 to 80 | 0 to 80 | 80 to 100 | 80 to 100 | 80 to 100 | 0 to 80 |
| COc1ccnc(C(=O)N[C@H]2CCC[C@H](Oc3ccccc3)[C@@H](OC(=O)C3CC3)[C@H](C)OC2=O)c1OCOC(=O)C(C)C [F241] | 0 to 80 | 0 to 80 | 80 to 100 | 0 to 80 | 0 to 80 | 80 to 100 | < 0 | 80 to 100 | < 0 | 80 to 100 | 80 to 100 | 80 to 100 | 80 to 100 |
| COc1ccnc(C(=O)N[C@H]2CCC[C@H](Oc3ccccc3)[C@@H](OC(=O)C3CC3)[C@H](C)OC2=O)c1OC(C)=O [F242] | 0 to 80 | < 0 | 80 to 100 | 0 to 80 | < 0 | 80 to 100 | 0 to 80 | 80 to 100 | 0 to 80 | 80 to 100 | 80 to 100 | 80 to 100 | 0 to 80 |
| C=C(C)CO[C@H]1CCC[C@H](NC(=O)c2nccc(OC)c2OCOC(C)=O)C(=O)O[C@@H](C)[C@@H]1OC [F250] | 0 to 80 | 0 to 80 | 0 to 80 | < 0 | 0 to 80 |  | < 0 |  | 0 to 80 |  | 0 to 80 |  | 80 to 100 |
